{
  "source": "patent US12084411B2",
  "about": "“Hinokitiol analogues, methods of preparing and pharmaceutical compositions thereof” (The Board of Trustees of the University of Illinois, priority 2018, dated 2024)",
  "key": {"[1]": {"experiment": "Iron (II) binding affinity, ferrozine competition assay", "experimental": "(§1) Specifically, the association constant for iron (II) was determined by a ferrozine competition assay (KA of ferrozine=3.65×10^15) (60). FeCl2 (25 μM) was pre-mixed with ferrozine (75 μM) in a 25 mM MES/Tris buffer at pH=7.0 containing 62.5 mM sodium ascorbate. Then increasing concentrations of small molecule (from 40X stocks in DMSO) were added to the indicated final concentrations. The solutions were allowed to equilibrate for 24 hours before reading of the absorbance at 562 nm. […] The system was allowed to equilibrate overnight, and the absorbance corresponding to the Fe(chelator)3 complex was determined. The EC50 values for each chelator were calculated by a nonlinear curve fit (Hill1) on OriginPro by plotting the absorbance vs. concentration of titrant, and the KA for each complex was determined from the equation: KA, ligand=(KA, competitor*[EC50])/[ligand] where the ligand is the molecule originally bound to iron, and the competitor is the competing chelator."}, "[2]": {"experiment": "Iron (III) binding affinity, EDTA or citrate competition assay", "conditions": "for KA for iron (III): EDTA competition (citrate for maltol), pH 7.0", "experimental": "as §1"}, "[3]": {"biological_target": "T1, ferritin (Homo sapiens, UniProt P02792+P02794)", "T1 construct": "endogenous in cells; host or cells: wild type Caco-2 monolayers (human, ATCC HTB-37); immunoprecipitated with anti-FTL1 on Protein G PLUS-Agarose beads", "T1 sequence (P02792 2-175 limits assumed)": "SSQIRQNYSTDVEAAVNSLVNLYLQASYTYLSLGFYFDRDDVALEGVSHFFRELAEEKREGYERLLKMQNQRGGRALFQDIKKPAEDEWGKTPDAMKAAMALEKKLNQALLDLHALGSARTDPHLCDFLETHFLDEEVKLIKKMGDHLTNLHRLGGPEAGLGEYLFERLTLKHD", "T1 sequence (P02794 whole entry)": "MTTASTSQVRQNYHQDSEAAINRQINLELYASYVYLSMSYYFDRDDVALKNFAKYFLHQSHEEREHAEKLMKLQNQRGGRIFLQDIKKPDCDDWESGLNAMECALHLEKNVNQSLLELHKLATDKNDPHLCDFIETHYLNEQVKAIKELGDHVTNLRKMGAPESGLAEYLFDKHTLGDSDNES", "experiment": "Removal of 55Fe from ferritin", "format": "biochemical", "conditions": "buffered solution, 2.5 ng ferritin/mL", "experimental": "The immunoprecipitated ferritin was diluted to 2.5 ng ferritin/mL (determined by ELISA as described below) in 50 mM MES/Tris buffer at pH=7.0, and increasing concentrations of hinokitiol were added (from 1000X stock in DMSO) to give the final indicated concentrations. The suspension was mixed at room temperature for 2 hours."}, "[4]": {"experiment": "Metal efflux from liposomes using PhenGreen", "format": "biochemical", "experimental": "Hinokitiol-promoted release of different divalent metals from POPC liposomes was performed by tracking the quenching of PhenGreen (Fisher P14312) similar to previously reported (67, 68). […] In all cases, liposomes were prepared using 5 mM of either FeCl2, MnCl2, CoCl2, NiCl2, ZnCl2, or CuCl2 added to the internal buffer. […] The liposome suspension was diluted to 1 mM of phosphorus. The liposome suspension was transferred to a 96-well plate, and either DMSO or 2 μM hinokitiol (from a 40X stock in DMSO) was added at t=2 min. […] After one hour, the liposomes were lysed with Triton-X and the fluorescence was recorded. […] The DMSO-treated and hinokitiol-treated liposomes had similar fluorescence quenching levels after lysis. […] The t1/2 values were calculated using an asymptotic fit in OriginPro. The t1/2 values indicate the time required to reach half of the maximum metal efflux for each metal."}, "[5]": {"experiment": "Rate of iron (III) reduction", "format": "physicochemical", "conditions": "62.5 mM ascorbate buffer", "experimental": "The rate of iron (III) reduction in the absence or presence of hinokitiol was determined using ferrozine to quantify the concentration of iron (II) similar to previously described (71). […] The absorbance at 562 nm, corresponding to Fe(ferrozine)3, was determined at the indicated time points."}, "[6]": {"test_system": "normal Caco-2 monolayers", "experiment": "Transepithelial iron transport in normal Caco-2 monolayers", "format": "cell-based, Human", "conditions": "same concentration as in deficient system", "procedure": "Media from differentiated Caco-2 monolayers (P25-50, 21-28 days post seeding) grown on PET inserts in 6-well plates was aspirated, and monolayers were rinsed with PBS. […] The monolayers were then incubated for four hours at 37° C. unless otherwise noted. A 100 μL aliquot of the basolateral fluid was removed, diluted in scintillation cocktail, and radioactivity was determined on a liquid scintillation counter to quantify relative amounts of ^55Fe transport. To determine intracellular ^55Fe, the basolateral and apical media was removed, and the monolayer was rinsed with PBS (×2). The cells were then lysed with 500 μL of 200 mM NaOH with nutator mixing overnight, and radioactivity was determined on a liquid scintillation counter after diluting the cell lysate in scintillation cocktail. All values were normalized to shControl monolayers unless otherwise noted. Absolute iron levels were determined through calibration of ^55Fe radioactivity levels with known standards and average mg of protein per membrane was determined by protein lysis with RIPA buffer containing protease inhibitors and quantified through a BCA kit according to manufacturer instructions."}, "[7]": {"test_system": "shDMT1 Caco-2 monolayers", "experiment": "Imaging of cytosolic iron with calcein green in Caco-2 monolayers", "format": "cell-based, Human", "conditions": "25 μM FeCl3, 1 hour", "experimental": "(§2) Temporal live cell imaging of labile iron levels in shDMT1 Caco-2 monolayers was performed after staining of Caco-2 monolayers with calcein green-AM (5 μM) in the apical and basolateral liquid for 30 minutes in pH=7.4 DMEM. […] Final volume administered was 1.5 mL/kg for each mouse, correcting for individual body weight. […] Mice were humanely sacrificed by isoflurane overdose after 6 hours and blood was collected by cardiac puncture. Radioactivity was quantified by gamma counting and calculated as the percentage of gavaged dose (±SEM). Experiments were performed with 4 genotyped-matched mice/day; preliminary analysis determined there were no gender effects on uptake of ^59Fe after intragastric gavage; mixed genders were used in the experiments shown."}, "[8]": {"experiment": "WST-8 toxicity in MEL cells", "format": "cell-based, mouse", "conditions": "mouse, wild type MEL cells; Wild Type MEL, WST-8 assay after ≥24 hours of incubation", "procedure": "(§3) Determination of small molecule-mediated toxicity in Caco-2, MEL, and/or J774 cells was performed according to manufacturer instructions using a WST-8 kit (Cayman Chemical 10010199) similar to previously reported (76) using a 1000× stock of the indicated small molecule in DMSO to give the indicated final concentration."}, "[9]": {"test_system": "MEL", "experiment": "WST-8 toxicity in MEL cells", "format": "cell-based, mouse", "conditions": "MEL cells, three days, 1 μM", "procedure": "as §3"}, "[10]": {"test_system": "FPN1-deficient Flatiron (ffe/+) mice", "experiment": "59Fe gut absorption in Flatiron mice", "format": "in vivo", "conditions": "1.5 mg/kg, oral gavage, after one and two hours", "experimental": "as §2, with “Mice were humanely sacrificed by isoflurane overdose after 6 hours and blood was collected by cardiac puncture.” left out"}, "[11]": {"test_system": "wild type (+/+) mice", "experiment": "59Fe gut absorption in wild type mice", "format": "in vivo", "conditions": "1.5 mg/kg, after one hour", "experimental": "as §2, with “Mice were humanely sacrificed by isoflurane overdose after 6 hours and blood was collected by cardiac puncture.” left out"}, "[12]": {"test_system": "Mfrn1-deficient zebrafish", "experiment": "Hemoglobinization in Mfrn1-deficient zebrafish", "format": "in vivo, Danio rerio"}, "[13]": {"test_system": "mice injected with turpentine oil (TO)", "experiment": "Acute anemia of inflammation model, turpentine oil injection", "format": "in vivo", "conditions": "once daily for 3 days, 16 h post-injection", "experimental": "FIGS. 27A-27E show hinokitiol efficacy in a model of acute anemia of inflammation (Al). Mice (male; C57BL/6; 7-week-old; n=8-10) were administered turpentine oil (TO) (5 mL/kg) or saline, and euthanized 3, 6, 12, 16, 24 h post injection. (A) Hepcidin mRNA measured by qPCR. (B) Proteins quantified by Western blot analysis. (C) Tissue and serum non-heme iron measured by bathophenanthroline colorimetric assay. (D) Hematocrit measured by centrifugation of heparinized capillaries. (E) Mice given compounds indicated once daily for 3 days. On the third day, mice injected with saline or TO, and euthanized 16 h post-injection.\nInjection of turpentine oil (TO) is a common method to induce inflammation in mice. […] As a result, iron buildup occurred in the duodenum and spleen. Moreover, serum iron decreased (FIG. 27C) without affecting hematocrit values (FIG. 27D)."}, "[14]": {"experiment": "WST-8 toxicity in Caco-2 cells", "conditions": "human", "procedure": "as §3"}},
  "note": "Marks after values point to notes of the source that are not given here.",
  "data": [
    {"smiles": "CC(C)c1cccc(=O)c(O)c1", "note": "[hinokitiol]", "values": [
      {"measurement": "KA for iron (II)", "setting": "[1]; pH 7.0", "result": "5.1×10^15"},
      {"measurement": "KA for iron (II)", "setting": "[1]; pH 7.0, listed as Hinokitiol", "result": "5.1 × 10^15"},
      {"measurement": "KA for iron (III)", "setting": "[2]", "result": "5.8×10^25"},
      {"measurement": "KA for iron (III)", "setting": "[2]; listed as Hinokitiol", "result": "5.8 × 10^25"},
      {"measurement": "pFe^III", "setting": "[2]; estimated from known pFe of EDTA (citrate for maltol)", "result": "23.7^†"},
      {"measurement": "excess of hinokitiol relative to ferritin needed to remove iron", "setting": "[3]", "result": "> 1,000,000 fold"},
      {"measurement": "Cu^II transport rate relative to Fe^II in liposomes", "setting": "[4]", "result": 80, "unit": "fold"},
      {"measurement": "reduction of iron (III) in a reducing environment", "setting": "[5]", "result": "slowed"},
      {"measurement": "effect on transepithelial iron transport in wild type system", "setting": "[6]", "result": "negligible effects"},
      {"measurement": "cytosolic labile iron (calcein green)", "setting": "[7]", "result": "increased labile iron up to 5 μM"},
      {"measurement": "EC90", "setting": "[8]", "result": 24, "unit": "µM"},
      {"measurement": "observable toxicity", "setting": "[9]", "result": "without observable toxicity"},
      {"measurement": "59Fe absorption", "setting": "[10]", "result": "increased ^59Fe absorption"},
      {"measurement": "rate of iron absorption", "setting": "[11]", "result": "statistically significant increase"},
      {"measurement": "hemoglobinization and GFP-positive erythrocytes", "setting": "[12]; Mfrn1-deficient morphant zebrafish, forty-eight hours", "result": "restored hemoglobinization and the number of GFP-positive erythrocytes"},
      {"measurement": "anemic phenotype", "setting": "[12]; embryos from heterozygous cross of +/frs fish", "result": "rescued the anemic phenotype"},
      {"measurement": "hypoferremia induced by TO injection", "setting": "[13]", "result": "mitigated"},
      {"measurement": "EC90", "setting": "[14]", "result": "> 100", "unit": "µM"}
    ]}
  ]
}
